Paper PMC3462244 (2012)

Target: cannabinoid receptor subtype 2 (CB2) (Homo sapiens, UniProt P34972)
Assay: [3H]CP-55940 radioligand competition binding, CHO-CB2 cell membranes

cannabinoid receptor subtype 2 (CB2), sequence (P34972 whole entry): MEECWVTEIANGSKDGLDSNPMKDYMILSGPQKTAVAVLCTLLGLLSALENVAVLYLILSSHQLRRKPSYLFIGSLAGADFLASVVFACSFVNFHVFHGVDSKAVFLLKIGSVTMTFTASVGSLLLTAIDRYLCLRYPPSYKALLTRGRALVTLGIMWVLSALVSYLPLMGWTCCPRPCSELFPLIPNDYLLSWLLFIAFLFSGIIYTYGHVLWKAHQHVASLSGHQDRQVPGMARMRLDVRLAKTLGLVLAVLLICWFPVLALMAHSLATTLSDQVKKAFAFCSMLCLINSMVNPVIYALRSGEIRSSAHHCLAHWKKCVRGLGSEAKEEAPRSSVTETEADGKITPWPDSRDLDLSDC

Row | SMILES | Ki [nM] | Experimental pKi [pKi]
1 | COC(=O)C1(C)CCCC2(C)c3cc(O)c(C(C)C)cc3CCC12 (stereo not shown) [compound 49888, NSC49888] | 6.7 | –
2 | COc1ccc2c(c1)CCC1=C2CC2C(=O)C1(C)CCC2(C)OC(C)=O (stereo not shown) [compound 76301, NSC76301] | – | 5.42
3 | COc1ccc2c(c1)c1c(C)c3cnccc3c(C)c1n2CCCN1C(=O)c2ccccc2C1=O [compound 174122, NSC174122] | – | 5.59
4 | CC(=O)OC1CC2C3(C)CCC4C(C)(C)CCCC4(C)C3CC(O)C2(C)C2C1=COC2OC(C)=O (stereo not shown) [compound 369049, NSC369049] | – | 5.51
